{"source": "patent US20240245783A1", "about": "“METALLO-BETA-LACTAMASE INHIBITOR” (priority 2021, published 2024)", "key": {"IMP-1-expressing E. coli": {"system": "IMP-1-expressing E. coli", "assay": "Susceptibility of IMP-1-expressing E. coli to meropenem (Test Example 5)", "assay_type": "cell-based", "conditions": "compound at 25 μM; meropenem diluted from 2 μM; turbidity 655 nm after one day", "description": "Based on the description of NON PATENT LITERATURE 5, IMP-1-expressing E. coli was prepared.\nThe effects of DTPA-cefalexin and NOTA-cefalexin on the susceptibility of IMP-1-expressing E. coli to a carbapenem antibacterial agent (meropenem) were evaluated by the following method. The IMP-1-expressing E. coli was cultured overnight with shaking in LB medium containing 100 μg/ml ampicillin. The bacterial solution was diluted to 1/200 with LB medium, used as a test bacterial solution, and then seeded in a 96-well plate. Meropenem (Wako Pure Chemical Industries, Ltd.) was added to the bacterial solution, thereby performing two-step dilution from a maximum of 2 μM. The bacteria were cultured in an incubator at 37° C. for one day, and the growth at that time was measured by turbidity (655 nm). FIGS. 8 and 9 depict the results.\nFIG. 8 depicts the susceptibility to meropenem when DTPA-cefalexin was added at 25 μM, or EDTA or DTPA was added at 25 μM. FIG. 9 depicts susceptibility to meropenem when NOTA-cefalexin was added at 25 μM. Those denoted as “control” in the figure show the results of adding only meropenem."}, "[1]": {"system": "E. coli clinical isolate expressing IMP-1", "assay": "Meropenem MIC against E. coli clinical isolate expressing IMP-1 (Test Example 10)", "assay_type": "cell-based", "description": "The enhancing effect of DTPA-ADCA on the susceptibility of E. coli clinical isolate expressing IMP-1 to a carbapenem antibacterial agent (meropenem) was evaluated by the following method. The E. coli clinical isolate was cultured overnight with shaking in LB medium. The bacterial solution was diluted to 1/1000 with LB medium, used as a test bacterial solution, and then seeded in a 96-well plate. Meropenem (Wako Pure Chemical Industries, Ltd.) was added to the bacterial solution, thereby performing two-step dilution from a maximum of 10 μg/ml. The bacteria were cultured in an incubator at 37° C. for one day, and growth at that time was measured by turbidity (655 nm). The meropenem concentration at which no bacterial growth had been observed was defined as the minimum inhibitory concentration.\nThe effect of DTPA-ADCA on the susceptibility of an E. coli clinical isolate to meropenem was evaluated by the following method. The E. coli clinical isolate was cultured overnight with shaking in LB medium. The bacterial solution was diluted to 1/1000 with LB medium, used as the test bacterial solution, and then seeded in a 96-well plate. Meropenem (Wako Pure Chemical Industries, Ltd.) was added to this bacterial solution in the range of 0.1 μg/ml to 0.005 μg/ml. Here, DTPA or DTPA-ADCA was used in combination therewith at a concentration of […], and the effect on bacterial growth was examined. The bacteria were cultured in an incubator at 37° C. for one day, and the growth at that time was measured by turbidity (655 nm).\nFIG. 20 depicts the results. Multidrug-resistant E. coli was cultured with compounds having the indicated concentrations and the bacterial load was assessed by turbidity after 24 hours. […] Combined use of DTPA-ADCA (20 μM) reduced the minimum inhibitory concentration of meropenem to […] and enhanced the antibacterial activity by 100 times."}, "[2]": {"biological_target": "T1, recombinant metallo-β-lactamase (recombinant IMP-1) (Serratia marcescens, UniProt P52699)", "T1 construct": "made in house; host or cells: E. coli BL21(DE3), vector pET29a", "T1 sequence (P52699 19-246 limits assumed)": "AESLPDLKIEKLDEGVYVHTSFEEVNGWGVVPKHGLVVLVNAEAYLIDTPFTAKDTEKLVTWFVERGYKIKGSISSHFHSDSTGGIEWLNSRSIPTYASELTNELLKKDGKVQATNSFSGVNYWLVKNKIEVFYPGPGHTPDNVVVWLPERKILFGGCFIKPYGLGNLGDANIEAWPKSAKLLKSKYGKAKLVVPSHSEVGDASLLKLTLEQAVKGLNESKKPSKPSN", "assay": "Inhibition of meropenem degradation by recombinant IMP-1 (Test Example 1)", "assay_type": "biochemical", "conditions": "compound at 1, 5, and 10 μM; 100 μM meropenem; 1 hour at 37° C.; tandem mass spectrometry", "description": "Based on the description of NON PATENT LITERATURE 5, a recombinant metallo-β-lactamase (recombinant IMP-1) was prepared. “NG_049172” of Database: RefSeq as the IMP-1 gene was incorporated into vector pET29a (Novagen), and then expressed in E. coli BL21(DE3) (Invitrogen).\nRecombinant IMP-1 was dissolved in a 50 mM sodium phosphate buffer (pH 7.6) at a concentration of 0.25 μg/ml. Furthermore, zinc chloride was added to the solution in such a manner that the concentration was 0.1 μM. The resultant in this state was subjected to preincubation at 37° C. for 10 minutes. […] After 1 hour of incubation at 37° C. residual meropenem was quantified by tandem mass spectrometry. Meropenem was quantified by a multiple reaction monitoring method. […]\nReverse phase column: YMC-Triat C18 Plus column (2.1×50 mm); column temperature: 45° C.; mobile phase (2 liquids): mobile phase A (0.1% formic acid aqueous solution), mobile phase B (acetonitrile); gradient: increase from 1% B to 80% B for 10 minutes, keep it at 80% B for 0.5 minutes, and then return it to 1% B over 1 minute. […] Detection: multiple reaction monitoring, parent ion at 384.2, child ion at 68.1; measured in a positive ion mode.\nFIG. 4 depicts a graph showing the results of quantifying the peak area of meropenem detected in FIG. 3. The peak of meropenem alone is expressed as 100%."}, "[3]": {"system": "IMP-1-expressing Klebsiella pneumoniae", "assay": "Survival of Leukopenia mice infected with IMP-1-expressing Klebsiella pneumoniae (Test Example 6)", "assay_type": "in vivo", "conditions": "meropenem 10 mg/kg and compound 1 50 mg/kg subcutaneously 30 min after infection; 48 hours; Leukopenia ddY mice", "description": "DTPA-conjugated cefalexin (compound 1)'s effect of enhancing the drug susceptibility of pathogenic bacteria was examined by an in vivo experiment using bacteria-infected mice. To prepare a compromised Leukopenia mouse model, 0.1 mL of cyclophosphamide monohydrate (Sigma-Aldrich) prepared with PBS was administered intraperitoneally to 4-week-old male ddY mice (Japan SLC) at 250 mg/kg at 4 days before infection. IMP-1-expressing Klebsiella pneumoniae used herein was a clinical isolate provided by Kumamoto University Hospital. The bacteria were cultured overnight with shaking in LB medium at 37° C., then diluted 50-fold with LB medium, and further cultured with shaking, so that the turbidity (600 nm) was 1.5 or higher. The bacteria were centrifuged to remove the medium, washed twice with PBS, and then diluted with PBS to 5×10^5 CFU/mL. In the mouse infection experiment, each Leukopenia mouse was infected with 0.1 mL (5×10^4 CFU) of IMP-1-expressing Klebsiella pneumoniae by intraperitoneal injection. Thirty minutes after infection, 0.1 mL of a mixed solution containing meropenem (Wako Pure Chemical Industries, Ltd.) and compound 1 (DTPA-CEF) was subcutaneously administered to each mouse of a treatment mouse group at 10 mg/kg and 50 mg/kg, respectively. […] Forty-eight hours after infection, mice were assessed for viability. […]"}, "[4]": {"conditions": "combined use of DTPA-ADCA (20 μM)"}}}
{"smiles": "CC1=C(C(=O)O)N2C(=O)[C@@H](NC(=O)[C@H](NC(=O)CN3CCN(CC(=O)O)CCN(CC(=O)O)CC3)c3ccccc3)[C@H]2SC1", "note": "[compound 7, NOTA-Conjugated Cefalexin]", "values": [{"measurement": "effect on susceptibility of IMP-1-expressing E. coli to meropenem", "setting": "IMP-1-expressing E. coli", "value": "metallo-β-lactamase-expressing bacteria are killed by the effect of the carbapenem antibacterial agent"}]}
{"smiles": "CC1=C(C(=O)O)N2C(=O)[C@@H](NC(=O)CN(CCN(CCN(CC(=O)O)CC(=O)O)CC(=O)O)CC(=O)O)[C@H]2SC1", "note": "[compound 6, DTPA-conjugated ADCA]", "values": [{"measurement": "enhancement of the antibacterial activity of meropenem", "setting": "[1]; [4]", "value": 100, "unit": "times"}, {"measurement": "minimum inhibitory concentration of meropenem", "setting": "[1]; [4]", "value": 10, "unit": "mg/L"}]}
{"smiles": "O=C(O)CN(CCN(CC(=O)O)CC(=O)O)CCN(CC(=O)O)CC(=O)O", "note": "[DTPA, reference compound]", "values": [{"measurement": "effect on the minimum inhibitory concentration of meropenem", "setting": "[1]; DTPA used in combination with meropenem", "value": "had no such effect"}]}
{"smiles": "CC1=C(C(=O)O)N2C(=O)[C@@H](NC(=O)C(NC(=O)CN(CCN(CCN(CC(=O)O)CC(=O)O)CC(=O)O)CC(=O)O)c3ccccc3)[C@H]2SC1", "note": "(stereo partly shown) [compound 1, DTPA-conjugated cefalexin]", "values": [{"measurement": "inhibition of meropenem degradation by IMP-1 (residual meropenem)", "setting": "[2]", "value": "inhibited the degradation of meropenem"}, {"measurement": "percent survival", "setting": "[3]", "value": 50, "unit": "%"}, {"measurement": "effect on susceptibility of IMP-1-expressing E. coli to meropenem", "setting": "IMP-1-expressing E. coli", "value": "metallo-β-lactamase-expressing bacteria are killed by the effect of the carbapenem antibacterial agent"}]}
